ChEMBL document CHEMBL1201862, “PubChem BioAssay data set” (2004)
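Protocol summary: plate cells (96-well), add compound at 5 concentrations, incubate 48 h, interpolate endpoints linearly. Here, GI50 denotes the concentration required for 50% inhibition of growth.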 Activity calls are given as the source filed them. No stated cut-off is given here; in the data, active = GI50 up to about 1.1 µM and inactive = higher.

What was measured:
Test in all cases: NCI anticancer screen, dose series, 48 h
[1] = tested on: NCI-H460
[2] = tested on: U-251
[3] = tested on: K562
[4] = tested on: OVCAR-4
[5] = tested on: ACHN
[6] = tested on: HCT-15
[7] = tested on: MDA-MB-435
[8] = tested on: SF-268
[9] = tested on: UACC-257
[10] = tested on: NCI-H23
[11] = tested on: HOP-62
[12] = tested on: UACC-62
[13] = tested on: SK-MEL-2
[14] = tested on: MOLT-4
[15] = tested on: HOP-92
[16] = tested on: EKVX
[17] = tested on: SR
[18] = tested on: Hs-578T
[19] = tested on: IGROV-1
[20] = tested on: 786-0

Measured: GI50

CCCCCCc1cc2cc(C(=O)Nc3nc(C45CC6CC(CC(C6)C4)C5)cs3)c(=O)oc2cc1O
inactive: [1] 5.16 µM | [2] 11.6 µM | [3] 2.31 µM | [4] 11.1 µM | [5] 4.43 µM | [7] 7.13 µM | [8] 9.57 µM | [9] 24.6 µM | [10] 5 µM | [11] 18.1 µM | [12] 4.65 µM | [13] 12.3 µM | [14] 15.1 µM | [15] 4.93 µM | [16] 17.9 µM | [17] 5.6 µM | [18] 11.8 µM | [19] 10.4 µM | [20] 12.1 µM
3.85 µM: [6]

CCN(CC)c1ccc(/C=C2/C[N+](C)(C)C/C(=C/c3ccc(N(CC)CC)cc3)C2=O)cc1
active: [3] 1.01 µM | [15] 0.813 µM | [17] 0.968 µM
inactive: [1] 2.92 µM | [2] 2.37 µM | [4] 3.01 µM | [5] 32 µM | [7] 1.67 µM | [8] 2.58 µM | [9] 2.09 µM | [10] 1.69 µM | [11] 5.55 µM | [12] 2.01 µM | [13] 1.87 µM | [14] 1.51 µM | [16] 5.96 µM | [18] 2.47 µM | [19] 2.19 µM | [20] 3.12 µM
> 100 µM: [6]

CN(C)CCO/N=C1/C=C2CC[C@H]3[C@@H]4CC[C@H](O)[C@@]4(C)CC[C@@H]3[C@@]2(C)CC1
13.9 µM: [6]
inactive: [1] 7.11 µM | [2] 10.1 µM | [3] 6.22 µM | [4] 2.49 µM | [5] 15.4 µM | [7] 3.49 µM | [8] 7.48 µM | [9] 12.9 µM | [10] 11.4 µM | [11] 12.1 µM | [12] 10.9 µM | [13] 13.9 µM | [14] 8.55 µM | [15] 7.85 µM | [16] 15.6 µM | [17] 5.55 µM | [18] 4.91 µM | [19] 6.95 µM | [20] 8.85 µM

Oc1cc2c3c(c1)CCCN3CCC2
> 10 µM: [6]
inactive: [1] > 10 µM | [2] > 10 µM | [3] > 10 µM | [4] > 10 µM | [5] > 10 µM | [7] > 10 µM | [8] > 10 µM | [9] > 10 µM | [10] > 10 µM | [11] > 10 µM | [12] > 10 µM | [13] > 10 µM | [14] > 10 µM | [15] > 10 µM | [16] > 10 µM | [17] > 10 µM | [18] > 10 µM | [19] > 10 µM | [20] > 10 µM

C=CC(=O)C#CC#CC/C=C\CCCCCCC
inactive: [1] > 20.6 µM | [2] > 20.6 µM | [3] 6.82 µM | [4] > 20.6 µM | [5] > 20.6 µM | [7] > 20.6 µM | [8] > 20.6 µM | [9] > 20.6 µM | [10] > 20.6 µM | [11] > 10.1 µM | [12] > 20.6 µM | [13] > 20.6 µM | [14] 4.53 µM | [15] > 11.3 µM | [16] > 20.6 µM | [17] 5.65 µM | [18] > 20.6 µM | [19] > 6.52 µM | [20] > 10.1 µM
> 20.6 µM: [6]

O=c1[nH]nc(-c2ccc([N+](=O)[O-])cc2)n1/N=C/c1ccc([N+](=O)[O-])cc1
73.8 µM: [6]
inactive: [1] 30.4 µM | [2] 71.4 µM | [3] 43.7 µM | [4] 52.1 µM | [5] > 100 µM | [7] 99.5 µM | [8] 72.9 µM | [9] > 100 µM | [10] 60.7 µM | [11] > 100 µM | [12] 71.4 µM | [13] > 100 µM | [14] 23.6 µM | [15] > 100 µM | [16] > 100 µM | [17] 52 µM | [18] > 100 µM | [19] > 100 µM | [20] 78.7 µM

CN1CCN(c2cc3[nH]c(-c4ccc(Cl)cc4)nc3cc2F)CC1
inactive: [1] 11.5 µM | [2] 21.4 µM | [3] 3.78 µM | [4] 22.8 µM | [5] 12.5 µM | [7] 11.4 µM | [8] 16.2 µM | [9] 10.8 µM | [10] 15.8 µM | [11] 16.8 µM | [12] 4.32 µM | [13] 16.8 µM | [14] 10.9 µM | [15] 25.4 µM | [16] 22.2 µM | [17] 24.1 µM | [18] 16.1 µM | [19] 15.7 µM | [20] 20.1 µM
5.42 µM: [6]
